Experimental data taken from patent US9169234B2, “Sepiapterin reductase inhibitors for the treatment of pain” (Children's Medical Center Corporation, priority 2009, dated 2015).
Like-named read-outs stand apart in the source and are kept apart here.

Molecular target: recombinant human SPR (Sepiapterin Reductase) (Homo sapiens (Human), UniProt P35270)
Test: SPR inhibition biochemical assay with chromogenic (OD at 420 nm) and LC/MS (L-biopterin formation) read-out
Experimental: The compounds described herein were screened for activity as inhibitors of Sepiapterin Reductase (SPR).
Bacteria were grown at 37° C., and expression of SPR protein was induced for 4 hours.
To screen for SPR inhibition, a biochemical assay based on LC/MS (and chromogenic) read-out has been developed. The LC/MS assay monitors the product formation (L-biopterin) and the chromogenic assay measures OD at 420 nm.
N-methoxyacetyl serotonin was used as a reference compound (positive control).
The exemplary assay protocol uses the following conditions: SPR (6 nM); L-Sepiapterin (50 μM); NADPH (100 μM); Na-Phosphate buffer, pH 6.5 (100 mM); 82 μL assay volume; 60 minutes incubation with compounds (0.5% final concentration in DMSO) at 37° C. in Greiner μClear® 384 well plates.
For example, the compounds of Table 1 were screened using this additional method in triplicate.

[1] = LC/MS read-out, L-biopterin product formation, SPR 6 nM, L-Sepiapterin 50 μM, NADPH 100 μM, pH 6.5, 60 minutes at 37° C., read-out: IC50 LC/MS
[2] = chromogenic read-out, OD at 420 nm, SPR 6 nM, L-Sepiapterin 50 μM, NADPH 100 μM, pH 6.5, 60 minutes at 37° C., read-out: IC50 chromogenic

Chain of recombinant human SPR (Sepiapterin Reductase) (P35270 whole entry): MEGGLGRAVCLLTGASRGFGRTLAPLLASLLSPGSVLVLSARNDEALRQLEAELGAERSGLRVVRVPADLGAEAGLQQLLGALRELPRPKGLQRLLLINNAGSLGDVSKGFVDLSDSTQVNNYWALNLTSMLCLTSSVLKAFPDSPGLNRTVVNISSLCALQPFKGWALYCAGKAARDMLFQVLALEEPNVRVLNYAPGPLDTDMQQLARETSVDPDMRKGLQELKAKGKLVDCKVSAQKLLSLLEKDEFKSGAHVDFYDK

Row | Structure (SMILES) | IC50 [1] [nM] | IC50 [2] [nM] | IC50 (reference compound (positive control), read-out not specified, read-out: IC50 measured using the screening conditions) [nM]
1 | COCC(=O)NCCc1cn(C)c2ccc(O)cc12 [(21)] | 86 | 84 | 
2 | COCC(=O)NCCc1c[nH]c2ccc(S(C)(=O)=O)cc12 [(17)] | 3200 | 4500 | 
3 | COCC(=O)NCCc1c[nH]c2ccc(O)cc12 [N-Methoxyacetyl-Serotonin, reference compound] | 43 | 42 | 20 to 40
4 | O=C(NCCc1c[nH]c2ccc(O)cc12)C1CC1 [(2)] | 340 | 360 | 
5 | Oc1ccc2[nH]cc(CCNc3cccnc3)c2c1 [(12)] | 1600 | 2100 | 
6 | COCC(=O)NCCc1c[nH]c2ccc(F)cc12 [(16)] | 2800 | 3400 | 
7 | CC(C)C(=O)NCCc1c[nH]c2ccc(O)cc12 [(1)] | 330 | 400 | 
8 | CCOCC(=O)NCCc1c[nH]c2ccc(O)cc12 [(3)] | 2200 | 2800 | 
9 | COCC(=O)NCC(=O)c1c[nH]c2ccc(O)cc12 [(24)] | 310 | 310 | 
10 | COCC(=O)NCCc1cccc(O)c1 [(32)] | 69 | 64 | 
